Reference: US8580321B2, “Method for reducing the effects of chemotherapy using flagellin related polypeptides” (priority 2003, dated 2013)

Experiments:
NF-κB [1] = experiment: NF-κB-regulated luciferase reporter assay in H116 human colon cancer cells; assay type: cell-based; details: for activation of NF-κB-regulated luciferase reporter: H116 cells, luciferase measured six hours after addition
Excerpt: While translocation of NF-κB to the nucleus is a crucial step in induction of NF-κB-regulated inhibitors of apoptosis, it is not sufficient in itself. To directly test the ability of selected fragments to induce expression of NF-κB-regulated genes, we performed reporter assay experiments. Flagellin and the AA′, BB′, A′ and B′ fragments were used for treatment of H116 human colon cancer cells carrying luciferase gene under a NF-κB-responsive promoter. The reporter construct contained three NF-κB-binding sites from the E-selectin promoter combined with a Hsp70 minimal promoter that is routinely used for the detection of NF-κB status of cells. Luciferase activity was measured in cell lysates six hours after addition of flagellin or its truncated fragments into the medium. TNF was used as positive control.
In order to study the ability of the AA′ fragments to directly activate NF-κB-regulated transcription, we performed reporter assay experiments as described above for a wide range of concentrations of flagellin, original AA′ and AA′-derived fragments.

[2] = tested on: mice treated with total body gamma radiation; experiment: Mouse survival after total body gamma irradiation (radioprotection); assay type: in vivo; details: for 30-day survival, 11 Gy / 30-day survival, 14 Gy: s.c. 5.0 μg/mouse (0.2 mg/kg); for 30-day survival, 11 Gy: 1 hour before 11 Gy; for 30-day survival, 14 Gy: 1 hour before 14 Gy
Protocol: Whole body irradiation of mice with 15 Gy gamma radiation caused death within 8 days from GI syndrome providing a conventional model of radiation induced damage of GI tract. To test whether flagellin was capable of protecting GI epithelium from IR, we tested the effect of i.v.-injected flagellin on the dynamics of mouse lethality after 15 Gy of radiation. […] Irradiation was done 4 hours post treatment. As expected, control irradiated mice (that received PBS i.v.) died between 5 and 8 days post-treatment. […] Intravenous, intraperitoneal and subcutaneous delivery of 0.2 mg/kg of flagellin followed by 13 Gy irradiation afforded similar degree of protection, leading to 85-90% 30-day survival of mice (data not shown). While not being bound by theory, flagellin may be a radioprotectant due to its activation of NF-κB, which presumably acts as an inhibitor of apoptotic death.
The experiments were done similarly to the above-described ones (FIGS. 14 and 15), however, instead of 15Gy, mice received 10Gy, the dose that caused 100% killing in control group by day 13 (FIG. 6).
In order to further estimate the dependence of radioprotective activity of flagellin on the time of treatment, mice were injected at several time points relative to the moment of gamma-irradiation. Experiments were performed essentially as explained above, using intraperitoneal injection of 5 μg/mouse (0.2 mg/kg) of full-length flagellin or, for control mice, 5 μg/mouse (0.2 mg/kg) of bacterial RNA polymerase. The experiments were performed using the NIH-Swiss mouse strain. […] Only −1 h graph is shown for clarity, however, both timepoints (−1 and −2 h) provide similar degree and dynamics of survival.
We next obtained an estimate of radiation dose-dependent protection for flagellin. As shown above (FIG. 7), treatment with flagellin was sufficient for 100% protection against 10 Gy gamma-irradiation (this dose causes death from hematopoietic syndrome) and 90% 30-day survival at 13 Gy (both hematopoietic and GI syndromes). Experiments were performed as described above, using flagellin 5 μg/mouse (0.2 mg/kg), intraperitoneally injected 1 h before irradiation.
As shown above, full-length flagellin provides protection from both hematopoietic and gastrointestinal syndromes. The radioprotective potential of flagellin fragments was similarly tested after gamma-irradiation with 11 Gy (dose that induces hematopoietic syndrome-associated mortality in mice) or 14 Gy (dose that causes death from GI syndrome). Mice (10 animals per group) were injected subcutaneously with 5.0 μg/mouse (0.2 mg/kg) of flagellin or its fragments, AA′ or BB′, and gamma-irradiated 1 hour later.
In order to explore the limits of radioprotection provided by the AA′ fragment, we irradiated mice with 17 Gy and 20 Gy single doses of total body gamma-radiation.
We tested the ability of AA′ to protect mice that were exposed to it. A group of 20 NIH-Swiss mice were subcutaneously injected with 5 μg/mouse (0.2 mg/kg) of AA′. A second injection of a equal dose of AA′ was administered after 21 (10 mice) and 28 days (another 10 mice), with the time elapsed being sufficient for formation of antibodies. The second injection of AA′ was followed by 13 Gy of whole-body gamma irradiation (1 h post-injection).
Repetitive irradiation within a short period of time may be common, for example, in space radiation events and in clinical radiotherapy regimens. We tested the ability of the AA′ flagellin fragment to protect mice from sub-lethal (4 treatments of 3 Gy) and 100% lethal (4 treatments of 4 Gy) regimens of fractionated gamma-irradiation. Fragment AA′ or saline buffer was given to NIH-Swiss female mice before every irradiation (once a day for 4 days). AA′ was administered as described above for single-dose irradiation (5 μg/mouse, given subcutaneously 1 h before irradiation). […]
We have extensively confirmed that AA′ protects NIH-Swiss and ICR mice from radiation. […]

NF-κB [3] = experiment: EMSA of NF-κB translocation / DNA binding in A549 cells; details: for inducing NF-κB translocation: nuclear extracts of treated A549 lung cancer cells
[4] = tested on: small intestinal epithelium of irradiated mice; experiment: Pathomorphological analysis of small intestine and skin after gamma irradiation; assay type: in vivo, mouse; details: for intestinal morphology 5 days after 14 Gy: pretreated mice, villi/crypt structure; for radiation-induced disappearance of sebaceous glands: skin, 5 days after 14 Gy
Protocol: Tissue samples of intestinal mucosa were taken 5 days after 14 Gy irradiation from mice pretreated with flagellin and control mice. Control animals were treated with 5.0 μg/mouse (0.2 mg/kg) bacterial RNA-polymerase. […] Tissue samples (small intestine and skin from the back) were also obtained from mice treated with the AA′ fragment. The results shown in FIG. 17 are areas of typical morphology observed over a set of at least 3 mice.
Flagellin (and CBLB502) may induce NF-κB activity via binding to TLR5. Accordingly, CBLB502-mediated radioprotection may be dependent on the presence and activity of TLR5. MOLF/Ei mice are a known natural model of TLR5 deficiency (Sebastiani G., et. al., Genomics. 2000 Mar. 15; 64(3):230-40). To verify that CBLB502-mediated radioprotection is indeed TLR5-dependent, we tested the protection of small intestine from radiation by CBLB502 in MOLF/Ei and NIH-Swiss mice (FIG. 35). Both strains of mice were given 0.2 mg/kg CBLB502 (AA′) or PBS 0.5 hr before 15 Gy of gamma-irradiation. The samples of small intestine were obtained 4 days after irradiation, stained by hematoxylin-eosin and subjected to pathomorphological analysis.

[5] = 5 μg/mouse (0.2 mg/kg) i.p. 1 h before 15 Gy
[6] = 5 μg/mouse i.p. 1 h before irradiation, estimate
[7] = 0.2 mg/kg 0.5 hr before 15 Gy, samples 4 days after irradiation

Q: “flagellin: Salmonella dublin FliC flagellin, 505 amino acids, SEQ ID NO: 1; recombinant full-length protein” was tested. Which “activation of NF-κB-regulated luciferase reporter” value (NF-κB [1]) did it give?
A: capable of NF-κB activation

Q: What about the “7-day survival at 15 Gy” value [2, 5] of the same substance?
A: 100%

Q: And the “30-day survival at 15 Gy” value [2, 5]?
A: 0%

Q: What about the DMF30 [2, 6] of the same substance?
A: 1.75-1.8

Q: And the “LD50/30 (radiation dose, flagellin-treated mice)” value [2, 6]?
A: 13.5-14 Gy

Q: What about the “protection from 10Gy (HP syndrome)” value ([2]; 5 μg/mouse, 10Gy) of the same substance?
A: complete protection

Q: What about the “protection against radiation by gavage delivery” value ([2]; 50 μg by gavage 1 h before 13 Gy) of the same substance?
A: No protection

Q: And the “30-day survival, parenteral routes” value ([2]; 0.2 mg/kg i.v., i.p., i.m. or s.c., 1 hr before 13 Gy, NIH-Swiss)?
A: 85-90%

Q: And the “30-day survival of mice” value ([2]; 0.2 mg/kg intravenous, intraperitoneal or subcutaneous, followed by 13 Gy)?
A: 85-90%

Q: What about the “protection against 10 Gy gamma-irradiation” value ([2]; 10 Gy (hematopoietic syndrome)) of the same substance?
A: 100%

Q: What about the “30-day survival at 13 Gy” value ([2]; 13 Gy) of the same substance?
A: 90%

Q: What about the “protection from 10 Gy” value ([2]; administered 24 hours before 10 Gy) of the same substance?
A: 100%

Q: And the “survival after 13 Gy irradiation” value ([2]; i.p. 5 μg/mouse (0.2 mg/kg), injected 1 or 2 hours before, NIH-Swiss mice)?
A: ~90%

Q: What about the “protection, 4 h timepoint” value ([2]; i.p. 5 μg/mouse, injected 4 h before 13 Gy, NIH-Swiss) of the same substance?
A: somewhat lower protection

Q: What about the “protective effect against 13 Gy induced death” value ([2]; i.p. 5 μg/mouse, injected 24 hours before 13 Gy) of the same substance?
A: no protective effect

Q: And the “survival after 15 Gy” value ([2]; i.v., irradiation 4 hours post treatment, 15 Gy, PBS controls died between 5 and 8 days)?
A: lived significantly longer

Q: What about the “radioprotectant effect from 13Gy” value ([2]; injected 1-4 h before 13Gy) of the same substance?
A: effective as a radioprotectant

Q: And the “approximate DMF (30-day survival)” value ([2]; mouse, in vivo)?
A: greater than 1.5

Q: What about the “30-day survival, 11 Gy” value [2] of the same substance?
A: 100%

Q: And the “30-day survival, 14 Gy” value [2]?
A: 100%

Q: What about the “inducing NF-κB translocation” value (NF-κB [3]; EMSA) of the same substance?
A: capable of inducing NF-κB translocation

Q: What about the “morphology of small intestinal epithelium after 15 Gy” value ([4]; i.v. 0.25 mg/kg, 15 Gy, HE stained sections) of the same substance?
A: close to normal morphology

Q: What about the “intestinal morphology 5 days after 14 Gy” value [4] of the same substance?
A: near-normal intestinal morphology

Q: What about the “radiation-induced disappearance of sebaceous glands” value [4] of the same substance?
A: prevented

Q: Which “activation of NF-κB-regulated luciferase reporter” value (NF-κB [1]) does the source give for “AA′: flagellin fragment (1-177)-Linker-(402-505), SEQ ID NO: 8” here?
A: capable of NF-κB activation

Q: What about the “level of NF-κB-regulated transcription relative to flagellin” value (NF-κB [1]; reporter assay, over the studied range of concentrations) of the same substance?
A: comparable to such of flagellin

Q: What about the “NF-κB reporter activity relative to flagellin” value (NF-κB [1]; very low concentration range) of the same substance?
A: more active than flagellin

Q: And the “protection against fractionated gamma-irradiation” value ([2]; 5 μg/mouse s.c. 1 h before every irradiation, 4 treatments of 3 Gy or 4 Gy, NIH-Swiss female mice)?
A: significant protection

Q: What about the “survival at day 10, Balb/c mice” value ([2]; 0.2 mg/kg 30 minutes before 10 Gy, vehicle 0%) of the same substance?
A: 100%

Q: What about the “time of mortality at 17 Gy” value ([2]; 17 Gy, control mice 6-7 day mortality) of the same substance?
A: 10 to 15 days

Q: What about the “delay of death after supralethal irradiation” value ([2]; 17 and 20 Gy, versus inactive fragment control) of the same substance?
A: significantly delayed

Q: And the “survival at day 30, all tested strains” value ([2]; 129/Sv, DBA/2, Balb/c, CD2F1, 0.2 mg/kg 30 minutes before 10 Gy, vehicle 0-25%)?
A: 50-100%

Q: What about the “effect of NS398 on radioprotection” value ([2]; LPS 2 mg/kg or AA′ 0.2 mg/kg s.c. 1 hr before 13 Gy, with NS398 1 mg/kg i.p., NIH-Swiss) of the same substance?
A: not

Q: And the “30-day survival, 11 Gy” value [2]?
A: 100%

Q: What about the “30-day survival, 14 Gy” value [2] of the same substance?
A: 100%

Q: What about the “30-day survival after second exposure to AA′” value ([2]; second s.c. injection 0.2 mg/kg after 21 or 28 days, 13 Gy 1 h post-injection, NIH-Swiss) of the same substance?
A: 100%

Q: What about the “mortality at 17 Gy” value ([2]; single dose 17 Gy total body) of the same substance?
A: 100%

Q: What about the “mortality at 20 Gy” value ([2]; single dose 20 Gy total body) of the same substance?
A: 100%

Q: And the “NF-κB Stimulation” value (NF-κB [3]; A549 cells, 1 μg/ml, 45 min, EMSA of whole cell extracts)?
A: Yes

Q: And the “level of NF-κB translocation, fragments versus flagellin” value (NF-κB [3]; EMSA, A549 cells)?
A: comparable

Q: What about the “inducing NF-κB translocation” value (NF-κB [3]; EMSA) of the same substance?
A: capable of inducing NF-κB translocation

Q: What about the “intestinal morphology after 15 Gy, NIH-Swiss (TLR5 wild type) mice” value [4, 7] of the same substance?
A: preservation of intestinal morphology

Q: And the “intestinal morphology after 15 Gy, TLR5-deficient MOLF/Ei mice” value [4, 7]?
A: no improving effect

Q: What about the “intestinal morphology 5 days after 14 Gy” value [4] of the same substance?
A: near-normal intestinal morphology

Q: What about the “radiation-induced disappearance of sebaceous glands” value [4] of the same substance?
A: prevented
